Key:
3T3-L1 Mouse Adipocytes = experiment: Free fatty acid levels in cultured 3T3-L1 mouse adipocytes (isoproterenol stimulated); format: cell-based; details: free fatty acid in medium; 5 μM peptide, 20-22 h pre-incubation then 3 h with 0.1 nM isoproterenol; isoproterenol alone = 100%
Method: The effect of the peptides on fatty acid metabolism can be assessed using an assay to monitor free fatty acid levels produced by cultured cells such as mouse adipocytes. Peptide arrays were initially prepared as 5 mM stock in DMSO and diluted to 0.5 mM in H2O; peptides were used at a final concentration of 5 μM (0.1% DMSO). Calculations for peptide concentrations based on approximate molecular weight of 2000 Daltons. […] Mouse 3T3-L1 cells purchased from ZenBio (Research Triangle Park, NC) were seeded at 3,000 cells per well in 96-well plates in Pre-adipocyte Medium (Zen-Bio) and grown to confluence at 37° C. in a humidified atmosphere of 5% CO2/95% air. Two days after confluence, cells were placed in Adipocyte Differentiation Medium (Zen-Bio) and cultured for three additional days at 37° C. in a humidified atmosphere of 5% CO2/95% air. The culture medium was then replaced with Adipocyte Maintenance Medium (Zen-Bio) and the cells maintained for an additional 9 days at 37° C. in a humidified atmosphere of 5% CO2/95% air with partial medium replacement every other day. Following 12 days of differentiation, medium was replaced Adipocyte Maintenance Medium without insulin and the cultures placed at 37° C. in a humidified atmosphere of 5% CO2/95% air. On day 13 of differentiation, test peptides were added directly to each well (without replacing the medium) at a final concentration of 5 μM in 0.1% DMSO and incubated for 20-22 hours at 37° C. in a humidified atmosphere of 5% CO2/95% air. […] Cells were incubated for 3 hours in Assay Buffer (Zen-Bio) at 37° C. in a humidified atmosphere of 5% CO2/95% air. Following 3 h incubation, conditioned medium from each well was transferred to a fresh 96-well plate. Free fatty acid concentrations in the medium were determined using a Free Fatty Acid Assay kit (Zen-Bio) according to the manufacturer's instructions; absorbance was measured using a Cytation 3 plate reader at 540 nm (BioTek, Winooski, Vt.). Treatment with 0.1 nM isoproterenol alone was used as the free fatty acid level stimulatory control. Absorbance values were expressed as percent control activity relative to 0.1 nM isoproterenol alone treated cells, 100%. The relative standard deviation of the isoproterenol control was <10%. Insulin at 0.25 nM was used as a potent control for decreasing free fatty acid levels. […] Data presented are representative values from 2 independent experiments with each data point performed in triplicate in each independent experiment.

C2C12 Cells = experiment: Glucose utilization in cultured C2C12 cells (myotubes); format: cell-based, mouse; details: glucose concentration in medium relative to untreated cells; 5 μM peptide, 22 h
Method: The effect of the peptides on glucose homeostasis can be assessed using an assay to monitor glucose utilization by cultured cells such as mouse myotubes. Peptide arrays were initially prepared as 5 mM stock in DMSO and diluted to 0.5 mM in H2O; peptides were used at a final concentration of 5 μM (0.1% DMSO). Calculations for peptide concentrations based on approximate molecular weight of 2000 Daltons. C2C12 mouse muscle cell line was purchased from Millipore Sigma (Saint Louis, Mo.). C2C12 cells were seeded in standard medium (DMEM/low glucose (1 g/L)+10% Fetal Bovine Serum+antibiotics) at 7,500 cells/well on 96-well plates and grown to confluence at 37° C. in a humidified atmosphere of 5% CO2/95% air. Three days after plating the medium was removed and with Differentiation Medium (DMEM/low glucose (1 g/L)+2% Horse Serum+antibiotics) added. The cultures were placed at 37° C. in a humidified atmosphere of 5% CO2/95% air for 5 days with partially replacement of medium daily. After 5 days of differentiation, the medium was removed from myotube cultures and replaced with Assay Medium (DMEM/low glucose (1 g/L)+antibiotics). Culture were placed at 37° C. in a humidified atmosphere of 5% CO2/95% air for 5 h. Following the 5 h incubation the medium was removed and fresh Assay Medium containing compounds was added; 5 μM peptide or 1 mM metformin as a potent stimulator of glucose utilization. Cells were incubated for 22 h at 37° C. in a humidified atmosphere of 5% CO2/95% air. Following 22 h incubation, conditioned medium from each well was transferred to a fresh 96-well plate. Glucose concentrations in the medium were determined using a Glucose Assay kit (Abcam; Cambridge, Mass.) according to the manufacturer's instructions; absorbance measured using a Cytation 3 plate reader at 570 nm (BioTek, Winooski, Vt.). Untreated cells were used as reference for basal glucose utilization. Absorbance values were expressed as percent control activity relative to untreated treated cells for 5 μM peptide. The relative standard deviation from plate to plate of untreated control was <10%. […] Data presented are representative values from 2-3 independent experiments with each data point performed in triplicate in each independent experiment.

H4-IIE Cells = experiment: Glucose production in cultured H4-IIE cells; format: cell-based, rat; details: glucose concentration in medium relative to untreated cells; 5 μM peptide, 24 h
Method: The effect of the peptides on glucose homeostasis can be assessed using an assay to monitor glucose production by cultured cells such as rat hepatocytes. Peptide arrays were initially prepared as 5 mM stock in DMSO and diluted to 0.5 mM in H2O; peptides were used at a final concentration of 5 μM (0.1% DMSO). Calculations for peptide concentrations based on approximate molecular weight of 2000 Daltons. H4-IIE rat hepatic cell line was purchased from American Type Culture Collection (Manassas, Va.). H4-IIE cells were seeded in standard medium (DMEM/high glucose+10% Fetal Bovine Serum+antibiotics) at 100,000 cells/well on 96-well plates and allowed to adhere overnight at 37° C. in a humidified atmosphere of 5% CO2/95% air. 24 h after seeding, the medium was removed, cells were rinsed with glucose free DMEM, and the medium replaced with Glucose Production Medium (glucose free DMEM+2 mM sodium pyruvate+10 mM sodium lactate+antibiotics). The cultures were placed at 37° C. in a humidified atmosphere of 5% CO2/95% air overnight. The next morning, the medium was removed and fresh Glucose Production Medium containing compounds was added; 5 uM peptide or 0.5-1 nM insulin as a potent inhibitor of glucose production. Cells were incubated for 24 h at 37° C. in a humidified atmosphere of 5% CO2/95% air. Following 24 h incubation, conditioned medium from each well was transferred to a fresh 96-well plate. Glucose concentrations in the medium were determined using a Glucose Assay kit (Abcam; Cambridge, Mass.) according to the manufacturer's instructions; absorbance measured using a Cytation 3 plate reader at 570 nm (BioTek, Winooski, Vt.). Untreated cells were used as reference for maximal glucose production. Absorbance values were expressed as percent control activity relative to untreated treated cells for 5 μM peptide. The relative standard deviation from plate to plate of untreated control was <25%. […] Glucose levels for 0.5-1 nM insulin treatment were <5% of the untreated control value. Data are presented as representative values from 2-3 independent experiments with each data point performed in triplicate in each independent experiment.

81 (MMFPIRLHNSPIRP) [compound 81]
Percent of Isoproterenol Control Activity (3T3-L1 Mouse Adipocytes): 90% | Percent of Control Activity (C2C12 Cells): 118% | Percent of Control Activity (H4-IIE Cells): 115%

125 (MSSDEFANTMPV) [compound 125]
Percent of Isoproterenol Control Activity (3T3-L1 Mouse Adipocytes): 115% | Percent of Control Activity (C2C12 Cells): 109% | Percent of Control Activity (H4-IIE Cells): 96%

86 (MMLSWDDIIYGG) [compound 86]
Percent of Isoproterenol Control Activity (3T3-L1 Mouse Adipocytes): 98% | Percent of Control Activity (C2C12 Cells): 87% | Percent of Control Activity (H4-IIE Cells): 108%

117 (MSKKIPATTMVLEWS) [compound 117]
Percent of Isoproterenol Control Activity (3T3-L1 Mouse Adipocytes): 98% | Percent of Control Activity (C2C12 Cells): 91% | Percent of Control Activity (H4-IIE Cells): 121%

10 (MATKKNFMEKGTRAGDMGSKPHS) [compound 10]
Percent of Isoproterenol Control Activity (3T3-L1 Mouse Adipocytes): 94% | Percent of Control Activity (C2C12 Cells): 100% | Percent of Control Activity (H4-IIE Cells): 87%

189 (FEELINVWVWVYMSQWEFYDGPCN) [compound 189]
Percent of Isoproterenol Control Activity (3T3-L1 Mouse Adipocytes): 95% | Percent of Control Activity (C2C12 Cells): 98% | Percent of Control Activity (H4-IIE Cells): 116%

16 (MDSWVVGVNEWG) [compound 16]
Percent of Isoproterenol Control Activity (3T3-L1 Mouse Adipocytes): 89% | Percent of Control Activity (C2C12 Cells): 100% | Percent of Control Activity (H4-IIE Cells): 89%

30 (MGEGLEENPTNPITKPTLN) [compound 30]
Percent of Isoproterenol Control Activity (3T3-L1 Mouse Adipocytes): 98% | Percent of Control Activity (C2C12 Cells): 102% | Percent of Control Activity (H4-IIE Cells): 102%

130 (MTAPVKLQGVWM) [compound 130]
Percent of Isoproterenol Control Activity (3T3-L1 Mouse Adipocytes): 110% | Percent of Control Activity (C2C12 Cells): 103% | Percent of Control Activity (H4-IIE Cells): 97%

192 (LGWVVGSFFMGGVWVGRSGIGGML) [compound 192]
Percent of Isoproterenol Control Activity (3T3-L1 Mouse Adipocytes): 104% | Percent of Control Activity (C2C12 Cells): 98% | Percent of Control Activity (H4-IIE Cells): 110%

58 (MKPMSPMRLY) [compound 58]
Percent of Isoproterenol Control Activity (3T3-L1 Mouse Adipocytes): 105% | Percent of Control Activity (C2C12 Cells): 101% | Percent of Control Activity (H4-IIE Cells): 112%

2 (MAASVERGFIFLV) [compound 2]
Percent of Isoproterenol Control Activity (3T3-L1 Mouse Adipocytes): 93% | Percent of Control Activity (C2C12 Cells): 99% | Percent of Control Activity (H4-IIE Cells): 119%

155 (MVVCMVITFIWSCTKIFGA) [compound 155]
Percent of Isoproterenol Control Activity (3T3-L1 Mouse Adipocytes): 97% | Percent of Control Activity (C2C12 Cells): 107% | Percent of Control Activity (H4-IIE Cells): 95%

51 (MIEMGASFCHV) [compound 51]
Percent of Isoproterenol Control Activity (3T3-L1 Mouse Adipocytes): 89% | Percent of Control Activity (C2C12 Cells): 103% | Percent of Control Activity (H4-IIE Cells): 111%

110 (MQPYRRYRFHPRLSMIYPTLQLM) [compound 110]
Percent of Isoproterenol Control Activity (3T3-L1 Mouse Adipocytes): 93% | Percent of Control Activity (C2C12 Cells): 110% | Percent of Control Activity (H4-IIE Cells): 108%

185 (MLVMLEVMFLVN) [compound 185]
Percent of Isoproterenol Control Activity (3T3-L1 Mouse Adipocytes): 86% | Percent of Control Activity (C2C12 Cells): 92% | Percent of Control Activity (H4-IIE Cells): 119%

54 (MKFEIWLGWC) [compound 54]
Percent of Isoproterenol Control Activity (3T3-L1 Mouse Adipocytes): 104% | Percent of Control Activity (C2C12 Cells): 103% | Percent of Control Activity (H4-IIE Cells): 113%

67 (MLLMWWVSEPHCVVVNM) [compound 67]
Percent of Isoproterenol Control Activity (3T3-L1 Mouse Adipocytes): 116% | Percent of Control Activity (C2C12 Cells): 88% | Percent of Control Activity (H4-IIE Cells): 107%

209 (FAVSMMWSLE) [compound 209]
Percent of Isoproterenol Control Activity (3T3-L1 Mouse Adipocytes): 97% | Percent of Control Activity (C2C12 Cells): 102% | Percent of Control Activity (H4-IIE Cells): 104%

97 (MNNSSSTVQP) [compound 97]
Percent of Isoproterenol Control Activity (3T3-L1 Mouse Adipocytes): 105% | Percent of Control Activity (C2C12 Cells): 95% | Percent of Control Activity (H4-IIE Cells): 122%

162 (MWLVLWLWML) [compound 162]
Percent of Isoproterenol Control Activity (3T3-L1 Mouse Adipocytes): 106% | Percent of Control Activity (C2C12 Cells): 103% | Percent of Control Activity (H4-IIE Cells): 113%

206 (SSSMMGEVASC) [compound 206]
Percent of Isoproterenol Control Activity (3T3-L1 Mouse Adipocytes): 95% | Percent of Control Activity (C2C12 Cells): 99% | Percent of Control Activity (H4-IIE Cells): 106%

80 (MMDPEHMNSMALKKAWVQMC) [compound 80]
Percent of Isoproterenol Control Activity (3T3-L1 Mouse Adipocytes): 87% | Percent of Control Activity (C2C12 Cells): 99% | Percent of Control Activity (H4-IIE Cells): 111%

28 (MGCSGSSVSQCYRVHTPQTKMPNAW) [compound 28]
Percent of Isoproterenol Control Activity (3T3-L1 Mouse Adipocytes): 105% | Percent of Control Activity (C2C12 Cells): 100% | Percent of Control Activity (H4-IIE Cells): 121%

149 (MVLSSPPIFRMSCSLL) [compound 149]
Percent of Isoproterenol Control Activity (3T3-L1 Mouse Adipocytes): 100% | Percent of Control Activity (C2C12 Cells): 100% | Percent of Control Activity (H4-IIE Cells): 97%

5 (MAHYSQIPSRPHGWPPSD) [compound 5]
Percent of Isoproterenol Control Activity (3T3-L1 Mouse Adipocytes): 98% | Percent of Control Activity (C2C12 Cells): 101% | Percent of Control Activity (H4-IIE Cells): 122%

— patent US20220332774A1, “THERAPEUTIC MITOCHONDRIAL PEPTIDES” (priority 2019, published 2022)
